Laboratory results as given in patent US10774053B2, “HIV protease inhibitors” (Gilead Sciences, Inc., priority 2017, dated 2020).
Like-named read-outs stand apart in the source and are kept apart here.

Experiments:
[1] = test system: HIV-1 (IIIB) in MT-4 cells; test: microbe, parasite or virus in culture; format: cell-based
recombinant human BACE-1 = recombinant human BACE-1 (Homo sapiens (Human), UniProt P56817); test: Beta-secretase (BACE) inhibition assay, fluorogenic enzymatic assay; format: biochemical
Chain of recombinant human BACE-1 (P56817 46-501): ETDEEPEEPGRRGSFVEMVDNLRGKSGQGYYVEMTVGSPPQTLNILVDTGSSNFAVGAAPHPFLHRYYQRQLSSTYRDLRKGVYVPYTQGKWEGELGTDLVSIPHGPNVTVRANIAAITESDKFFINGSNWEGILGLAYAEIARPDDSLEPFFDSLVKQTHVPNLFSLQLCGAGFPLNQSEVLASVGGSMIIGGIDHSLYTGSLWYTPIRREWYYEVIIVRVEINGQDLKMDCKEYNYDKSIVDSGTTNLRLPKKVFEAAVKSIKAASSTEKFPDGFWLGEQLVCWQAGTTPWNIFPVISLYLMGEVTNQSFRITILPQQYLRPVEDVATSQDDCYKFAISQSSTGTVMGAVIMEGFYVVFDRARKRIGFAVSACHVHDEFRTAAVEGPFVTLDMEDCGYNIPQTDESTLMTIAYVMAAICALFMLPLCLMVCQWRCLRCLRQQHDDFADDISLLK
Experimental: Beta-Secretase (BACE) Inhibition Assay
Inhibitory potency against β-secretase (BACE) was measured using an enzymatic assay with a fluorogenic readout. 50 nM of recombinant human BACE-1 (R&D Systems) and test compound at one of various concentrations were added to a reaction buffer containing 20 mM sodium acetate at pH 4.8, with 0.06% Triton X-100, and 1% DMSO. […] The total volume of the assay solution was 100 μL. […] The slopes of the progress curves were the measure of reaction rates. Reaction rates were plotted as a function of inhibitor concentration, and the data were fit with a four-parameter logistic fit using Graphpad PRISM software to yield IC50 values.

[2] = Liver microsomal stability, human liver microsomes; conditions: human
Experimental: Liver Microsomal Stability Protocol
Test compounds and one control compound (verapamil) were tested in 3 different species in duplicate sets.
Test compound concentration: 1 uM; Protein concentration: 0.5 mg/mL (for dog, rat, and human liver microsomes); Cofactor: NADPH-Regenerating system (NRS) solution; Time-points: 2, 12, 25, 45, and 65 minutes.
Reaction Composition (in Each Incubation Well) Contains:
At an incubation temperature of 37° C., the reaction was started with addition of NADPH Regeneration System, at each time point, 25 uL of the reaction mixture was removed and added to a plate with 225 uL quenching solution (50% MeOH, 25% ACN, 25% H2O, and 200 nM labetalol as internal standard). After plates were vortexed, they were centrifuged for 30 minutes to remove proteins. About 100 μL supernatant was removed to a new plate and diluted with 150 μL water. About 20 μL of the mixture was injected into LC/MS/MS system to monitor the compound's response. In vitro measured t1/2 was used to calculate Clint values.

[3] = MT-4 cells, HIV-1, read-out: MT4 EC50
[4] = Human immunodeficiency virus 1, IIIB, MT4, MT-4 cells, HIV-1, read-out: MT4 EC50

SMILES | IC50 (recombinant human BACE-1) [nM] | EC50 [1, 4] [nM] | half-life at 1 uM ([2]; liver microsomes) [h] | also measured
CC(C)(C)C[C@]1(c2ccc(-c3cnn(C(F)F)c3)cc2)NC(=N)N([C@H](COC(=O)N[C@@H]2CC2(F)F)c2ccc(Cl)c(-n3ncnc3C(F)F)c2)C1=O (single isomer, unassigned) [Compound 335] | > 100000 |  |  | EC50 [1, 3]: 5.59 nM
CC1(NC(=O)OC[C@H](c2ccc(Cl)c(-c3ncn[nH]3)c2)N2C(=N)N[C@](CC(C)(C)C(F)(F)F)(c3ccc(-c4cnn(C(F)F)c4)cc3)C2=O)CC1 [Compound 32] | > 100000 | 69.2 |  | 
CC(C)(C)C[C@]1(c2ccc(-c3cnn(C(F)F)c3)cc2)NC(=N)N([C@H](COC(=O)NC(C)(C)C(F)F)c2ccc(Cl)c(-c3ncnn3C(F)F)c2)C1=O [Compound 90] | > 100000 | 12.2 |  | 
CC(C)(C)C[C@]1(c2ccc(-c3cnn(C(F)F)c3)cc2)NC(=N)N([C@H](COC(=O)NC2(C(F)(F)F)CC2)c2ccc(Cl)c(-c3ncnn3C(F)F)c2)C1=O [Compound 113] | > 100000 | 7.75 |  | 
CC(C)(F)C[C@]1(c2ccc(-c3cnn(C4CC4)c3)cc2)NC(=N)N([C@H](COC(=O)NC2(C(F)(F)F)CC2)c2ccc(Cl)c(-c3ncnn3C(F)F)c2)C1=O [Compound 131] | > 100000 | 20.8 | ≥ 6.58 | 
CC(C)(C)C[C@]1(c2ccc(-c3cnn(C(F)F)c3)cc2)NC(=N)N([C@H](COC(=O)NC2(C(F)(F)F)CC2)c2ccc(Cl)c(-n3ncnc3C(F)F)c2)C1=O [Compound 177] | > 100000 | 9.81 |  | 
CC(C)(C)C[C@]1(c2ccc(-c3cnn(C(F)F)c3)cc2)NC(=N)N([C@H](COC(=O)NC(C)(C)C(F)F)c2ccc(Cl)c(-n3ncnc3C(F)F)c2)C1=O [Compound 185] | > 100000 | 12.6 |  | 
CC(C)(C)C[C@]1(c2ccc(-c3ccnn3C(F)F)cc2)NC(=N)N([C@H](COC(=O)NC2(C(F)(F)F)CC2)c2ccc(Cl)c(-n3ncnc3C(F)F)c2)C1=O [Compound 212] |  |  |  | EC50 [1, 3]: 11.9 nM; IC50 (recombinant human BACE-1; 50 nM recombinant human BACE-1, pH 4.8, read-out: BACE IC50): > 100000 nM
CC(C)(C)C[C@]1(c2ccc(-c3cnn(C(F)F)c3)cc2)NC(=N)N([C@H](COC(=O)NCC(F)(F)F)c2ccc(Cl)c(-n3ncnc3C(F)F)c2)C1=O [Compound 218] | > 100000 | 9.89 |  | 
CN(C(=O)OC[C@H](c1ccc(Cl)c(-n2cncn2)c1)N1C(=N)N[C@](CC(C)(C)C)(c2ccc(-c3cnn(C4CC4)c3)cc2)C1=O)C1CC1 [Compound 244] | > 100000 | 7.66 |  | 
CC(C)(C[C@]1(c2ccc(-c3cnn(C4CC4)n3)cc2)NC(=N)N([C@H](COC(=O)NC2(C(F)F)CC2)c2ccc(Cl)c(-n3ncnc3C(F)F)c2)C1=O)C(F)(F)F [Compound 271] | > 100000 | 12.6 |  | 
CC(C)(C)C[C@]1(c2ccc(-c3cnn(S(C)(=O)=O)c3)cc2F)NC(=N)N([C@H](COC(=O)NC2(C(F)(F)F)CC2)c2ccc(Cl)c(-n3ncnc3C(F)F)c2)C1=O [Compound 286] | > 100000 | 9.61 |  | 
CC(C)(C)C[C@]1(c2ccc(-c3cnn(S(C)(=O)=O)c3)c(F)c2)NC(=N)N([C@H](COC(=O)NC2(C(F)(F)F)CC2)c2ccc(Cl)c(-n3ncnc3C(F)F)c2)C1=O [Compound 290] |  | 11.6 | ≥ 6.58 | 
CC(C)(C)C[C@]1(c2ccc(-c3cnn(S(=O)(=O)C4CC4)c3)c(F)c2)NC(=N)N([C@H](COC(=O)NC2(C(F)(F)F)CC2)c2ccc(Cl)c(-n3ncnc3C(F)F)c2)C1=O [Compound 291] |  | 11.8 | ≥ 6.58 | 
Cn1ccc(-c2ccc([C@@]3(CC(C)(C)C)NC(=N)N([C@H](COC(=O)NC4CC4(F)F)c4ccc(Cl)c(-n5ncnc5C(F)F)c4)C3=O)cc2F)n1 (some centres unmarked) [Compound 295] |  | 7.33 | ≥ 6.58 | 
CC(C)(C)C[C@]1(c2ccc(-c3cnn(S(C)(=O)=O)c3)c(F)c2)NC(=N)N([C@H](COC(=O)NC2(C(F)F)CC2)c2ccc(Cl)c(-n3ncnc3C(F)F)c2)C1=O [Compound 303] |  | 11.2 | ≥ 6.58 | 
CC(C)(C[C@]1(c2ccc(-c3cnn(S(C)(=O)=O)c3)cc2)NC(=N)N([C@H](COC(=O)NC2(C(F)(F)F)CC2)c2ccc(Cl)c(-n3ncnc3C(F)F)c2)C1=O)C(F)(F)F [Compound 308] |  | 16.3 | ≥ 6.58 | 
CC(C)(C)C[C@]1(c2ccc(-c3cccc(S(C)(=O)=O)c3)c(F)c2)NC(=N)N([C@H](COC(=O)NC2(C(F)(F)F)CC2)c2ccc(Cl)c(-n3ncnc3C(F)F)c2)C1=O [Compound 312] |  | 27.8 | ≥ 6.58 | 

SMILES | IC50 (recombinant human BACE-1) [nM] | EC50 [1, 4] [nM] | half-life at 1 uM ([2]; liver microsomes) [h] | also measured
CC(C)(C)C[C@]1(c2ccc(-c3cnn(C4CC4)c3)cc2Cl)NC(=N)N([C@H](COC(=O)NC2(C(F)(F)F)CC2)c2ccc(Cl)c(-n3ncnc3C(F)F)c2)C1=O [Compound 317] |  | 99.1 | ≥ 6.58 | 
CC(C)(C#N)C[C@]1(c2ccc(-c3ccn(C(F)F)n3)cc2)NC(=N)N([C@H](COC(=O)NC2(C(F)(F)F)CC2)c2ccc(Cl)c(-n3ncnc3C(F)F)c2)C1=O [Compound 336] |  | 74.7 | ≥ 6.58 | 
CC(C)(C)C[C@]1(c2ccc(-c3cnn(C(F)F)c3)c(F)c2)NC(=N)N([C@H](COC(=O)N[C@@H]2CC2(F)F)c2ccc(Cl)c(-n3ncnc3C(F)F)c2)C1=O [Compound 339] |  | 9.09 | ≥ 6.58 | 
C[C@H](NC(=O)OC[C@H](c1ccc(Cl)c(-n2ncnc2C(F)F)c1)N1C(=N)N[C@](CC(C)(C)C)(c2ccc(-c3cnn(C(F)F)c3)cc2)C1=O)C(F)F [Compound 344] |  | 12.1 | ≥ 6.58 | 
CC(C[C@]1(c2ccc(-c3cnn(C(F)F)c3)cc2)NC(=N)N([C@H](COC(=O)NC2(C(F)(F)F)CC2)c2ccc(Cl)c(-n3ncnc3C(F)F)c2)C1=O)CS(C)(=O)=O (some centres unmarked) [Compound 345] |  | 134 | ≥ 6.58 | 
CC(C)(C)C[C@]1(c2ccc3c(C(F)F)nccc3c2)NC(=N)N([C@H](COC(=O)NC2(C(F)(F)F)CC2)c2ccc(Cl)c(-n3ncnc3C(F)F)c2)C1=O [Compound 348] | > 100000 | 7.46 |  | 
Cn1c(=O)ccc2cc([C@@]3(CC(C)(C)C)NC(=N)N([C@H](COC(=O)NC4(C(F)(F)F)CC4)c4ccc(Cl)c(-n5ncnc5C(F)F)c4)C3=O)ccc21 [Compound 349] | > 100000 |  |  | EC50 ([1]; Human immunodeficiency virus 1, IIIB, MT4, read-out: MT4 EC50 (nM)): 36 nM
CC(C)(C)C[C@]1(c2ccc3nc(-c4cnn(C(F)F)c4)ccc3c2)NC(=N)N([C@H](COC(=O)NC2(C(F)(F)F)CC2)c2ccc(Cl)c(-n3ncnc3C(F)F)c2)C1=O [Compound 350] |  | 8.9 | ≥ 6.58 | 
CC(C)(C)C[C@]1(c2ccc(-n3ccnn3)cc2)NC(=N)N([C@H](COC(=O)NC2(C(F)(F)F)CC2)c2ccc(Cl)c(-n3ncnc3C(F)F)c2)C1=O [Compound 351] |  | 17.9 |  | half-life at 1 uM ([2]; human liver microsomes): ≥ 6.58 h
CC(C)(C)C[C@]1(c2ccc(-c3cn(C4CC4)nn3)c(F)c2)NC(=N)N([C@H](COC(=O)NC2(C(F)(F)F)CC2)c2ccc(Cl)c(-n3ncnc3C(F)F)c2)C1=O [Compound 352] |  | 10.9 | ≥ 6.58 | 
CC(C)(C)C[C@]1(c2ccc(-n3cnnc3)cc2)NC(=N)N([C@H](COC(=O)NC2(C(F)(F)F)CC2)c2ccc(Cl)c(-n3ncnc3C(F)F)c2)C1=O [Compound 359] |  | 424 | ≥ 6.58 | 
CC(C)(C)C[C@]1(c2ccc(C#Cc3cnn(C(F)F)c3)c(F)c2)NC(=N)N([C@H](COC(=O)NC2(C(F)(F)F)CC2)c2ccc(Cl)c(-n3ncnc3C(F)F)c2)C1=O [Compound 361] |  | 82 | ≥ 6.58 | 
C[C@H](NC(=O)OC[C@H](c1ccc(Cl)c(-n2ncnc2C(F)F)c1)N1C(=N)N[C@](CC(C)(C)C)(c2ccc(-c3cn(C4(C(F)(F)F)CC4)nn3)cc2)C1=O)C(F)(F)F [Compound 363] |  | 11.7 | ≥ 6.58 | 
CC(C)(C)C[C@]1(c2ccc(-c3cn[nH]n3)cc2)NC(=N)N([C@H](COC(=O)NC2(C(F)(F)F)CC2)c2ccc(Cl)c(-n3ncnc3C(F)F)c2)C1=O [Compound 372] |  | 47.3 | ≥ 6.58 | 
CC(C)(C)C[C@]1(c2ccc(-c3cnn(C4CC4)n3)cc2)NC(=N)N([C@H](CNS(=O)(=O)C2CC2)c2ccc(Cl)c(-n3ncnc3C(F)F)c2)C1=O [Compound 387] |  | 47.9 | ≥ 6.58 | 
CC(C)(C[C@]1(c2ccc(-c3cnn(C4CC4)n3)cc2)NC(=N)N([C@H](CNC(=O)CC(F)(F)F)c2ccc(Cl)c(-n3ncnc3C(F)F)c2)C1=O)C(F)(F)F [Compound 391] |  | 12.5 | ≥ 6.58 | 
CC(C)(C[C@]1(c2ccc(-c3cnn(C4CC4)n3)cc2)NC(=N)N([C@H](CNC(=O)OC2CC2)c2ccc(Cl)c(-n3ncnc3C(F)F)c2)C1=O)C(F)(F)F [Compound 392] |  | 24.3 | ≥ 6.58 | 
